According to US20260207573A1, “EFFECT OF RIVOCERANIB ON CYTOCHROME P450 ENZYME SUBSTRATES” (ELEVAR THERAPEUTICS, INC., priority 2022, published 2026):
“Also recorded” adds a separate entry of the source.

Experiments:
[1] = molecular target: T1, CYP1A2 (Homo sapiens, UniProt P05177); test: Example 2 phase 1 drug-drug interaction study, rivoceranib 700 mg QD + 5+1 cocktail: caffeine probe; conditions: for AUC(0-t) / AUC(0-inf) / Cmax: human, in vivo
T1 sequence (P05177 1-516): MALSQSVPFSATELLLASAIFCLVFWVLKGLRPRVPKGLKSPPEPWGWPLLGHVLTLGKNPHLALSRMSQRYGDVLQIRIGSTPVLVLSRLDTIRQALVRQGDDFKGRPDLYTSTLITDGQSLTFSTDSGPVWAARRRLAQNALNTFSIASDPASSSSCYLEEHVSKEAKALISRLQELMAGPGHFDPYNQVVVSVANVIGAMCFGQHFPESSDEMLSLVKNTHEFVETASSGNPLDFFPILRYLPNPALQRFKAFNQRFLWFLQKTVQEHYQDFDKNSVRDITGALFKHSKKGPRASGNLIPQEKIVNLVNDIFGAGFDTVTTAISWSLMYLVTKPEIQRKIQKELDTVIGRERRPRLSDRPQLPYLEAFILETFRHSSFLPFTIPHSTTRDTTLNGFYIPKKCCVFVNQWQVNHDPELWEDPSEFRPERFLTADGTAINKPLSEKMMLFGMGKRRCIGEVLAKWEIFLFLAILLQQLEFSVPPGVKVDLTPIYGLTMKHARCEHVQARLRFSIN
Procedure: (§1) This example describes a pharmacokinetic interaction study in healthy human volunteers dosed with 700 mg rivoceranib and a mixture of cytochrome P450 enzyme (CYP1A2, CYP2C9, CYP2C19, CYP2D6, and CYP3A) substrates.
(§2) The primary objective of the study was to evaluate the effect of rivoceranib 700 mg once daily (QD) on the pharmacokinetics (PK) of various CYP substrates to determine drug-drug interactions of rivoceranib.
(§3) This was an open-label, 2-treatment, fixed-sequence drug-drug interaction phase 1 study designed to evaluated the impact of multiple oral doses of 700 mg rivoceranib on the single-dose PK of CYP enzyme substrates administered in a 5+1 Cooperstown probe cocktail (caffeine [CYP1A2], S- and R-warfarin [CYP2C9]+vitamin K, omeprazole [CYP2C19], dextromethorphan [CYP2D6], and midazolam [CYP3A]) in healthy volunteers (N=32). On day 1, volunteers received a single dose of the 5+1 cocktail comprising 200 mg caffeine, 10 mg S- and R-warfarin with 10 mg vitamin K, 40 mg omeprazole, 30 mg dextromethorphan, and 2 mg midazolam. Blood samples were collected pre-dose on day 1 and up to 120 hours post-dose for PK analyses of the substrates in the 5+1 cocktail. On days 6 to 15, volunteers received 700 mg rivoceranib once daily for 10 consecutive days with a single dose of the 5+1 cocktail administered on day 11. Blood samples were collected pre-dose on day 11 and up to 120 hours post cocktail dosing (day 16) for PK analyses. Each dosing was under fasted conditions. There was a washout period of 5 days between day 1 dosing and the first rivoceranib dose on day 6; the 2 cocktail dosings were spaced by 10 days.

[2] = molecular target: T1, CYP1A2; conditions: in vivo, po
[3] = molecular target: T2, CYP2C9 (Homo sapiens, UniProt P11712); test: Example 2 phase 1 drug-drug interaction study, rivoceranib 700 mg QD + 5+1 cocktail: S- and R-warfarin probe; design: AUC(0-∞), Mean (CV %), 5 + 1 cocktail alone / AUC(0-∞), Geometric LSM, 5 + 1 cocktail alone / AUC(0-∞), Mean (CV %), Rivoceranib plus 5 + 1 cocktail / AUC(0-∞), Geometric LSM, Rivoceranib plus 5 + 1 cocktail / AUC(0-t), Mean (CV %), 5 + 1 cocktail alone / AUC(0-t), Geometric LSM, 5 + 1 cocktail alone / AUC(0-t), Mean (CV %), Rivoceranib plus 5 + 1 cocktail / AUC(0-t), Geometric LSM, Rivoceranib plus 5 + 1 cocktail: unit not given beside the values; conditions: for AUC(0-t), Geometric LSM, Rivoceranib plus 5 + 1 cocktail / AUC(0-t), Mean (CV %), Rivoceranib plus 5 + 1 cocktail / AUC(0-∞), Geometric LSM, Rivoceranib plus 5 + 1 cocktail / AUC(0-∞), Mean (CV %), Rivoceranib plus 5 + 1 cocktail / Cmax, Geometric LSM, Rivoceranib plus 5 + 1 cocktail / Cmax, Mean (CV %), Rivoceranib plus 5 + 1 cocktail / AUC(0-t), Geometric LSM, 5 + 1 cocktail alone / AUC(0-t), Mean (CV %), 5 + 1 cocktail alone / AUC(0-∞), Geometric LSM, 5 + 1 cocktail alone / AUC(0-∞), Mean (CV %), 5 + 1 cocktail alone / Cmax, Geometric LSM, 5 + 1 cocktail alone / Cmax, Mean (CV %), 5 + 1 cocktail alone: healthy volunteers; for AUC(0-t), Geometric LSM, Rivoceranib plus 5 + 1 cocktail / AUC(0-t), Mean (CV %), Rivoceranib plus 5 + 1 cocktail / AUC(0-∞), Geometric LSM, Rivoceranib plus 5 + 1 cocktail / AUC(0-∞), Mean (CV %), Rivoceranib plus 5 + 1 cocktail / Cmax, Geometric LSM, Rivoceranib plus 5 + 1 cocktail / Cmax, Mean (CV %), Rivoceranib plus 5 + 1 cocktail: 5+1 cocktail day 11 + rivoceranib 700 mg QD days 6-15; for AUC(0-t), Geometric LSM, 5 + 1 cocktail alone / AUC(0-t), Mean (CV %), 5 + 1 cocktail alone / AUC(0-∞), Geometric LSM, 5 + 1 cocktail alone / AUC(0-∞), Mean (CV %), 5 + 1 cocktail alone / Cmax, Geometric LSM, 5 + 1 cocktail alone / Cmax, Mean (CV %), 5 + 1 cocktail alone: single oral 5+1 cocktail dose day 1, fasted; for increase in AUC0-inf when co-administered with rivoceranib / increase in Cmax when co-administered with rivoceranib: rivoceranib 700 mg
Procedure: as §1, §2, §3

[4] = molecular target: T2, CYP2C9; test: Example 1 pharmacokinetic interaction study, rivoceranib 200 mg + Cooperstown 5+1 cocktail: warfarin probe
[5] = molecular target: T3, CYP2C19 (Homo sapiens, UniProt P33261); test: Example 2 phase 1 drug-drug interaction study, rivoceranib 700 mg QD + 5+1 cocktail: omeprazole probe
Procedure: as §1, §2, §3

[6] = molecular target: T3, CYP2C19; conditions: in vivo, po
[7] = human, in vivo
Procedure: as §3

[8] = oral, probe caffeine, Geometric LSM, Rivoceranib plus 5 + 1 cocktail, healthy volunteers, 5+1 cocktail day 11 + rivoceranib 700 mg QD days 6-15
[9] = oral, probe caffeine, Mean (CV %), Rivoceranib plus 5 + 1 cocktail, healthy volunteers, 5+1 cocktail day 11 + rivoceranib 700 mg QD days 6-15
[10] = po, probe caffeine, Geometric LSM, 5 + 1 cocktail alone, healthy volunteers, single oral 5+1 cocktail dose day 1, fasted
[11] = po, probe caffeine, Mean (CV %), 5 + 1 cocktail alone, healthy volunteers, single oral 5+1 cocktail dose day 1, fasted
[12] = rivoceranib 700 mg QD, 100*LSM Rivoceranib Plus 5+1 Cocktail/LSM 5+1 Cocktail Alone
[13] = rivoceranib 200 mg once daily, oral substrate
[14] = po, Geometric LSM, 5 + 1 cocktail alone
[15] = po, Mean (CV %), 5 + 1 cocktail alone

T3 sequence (P33261 whole entry): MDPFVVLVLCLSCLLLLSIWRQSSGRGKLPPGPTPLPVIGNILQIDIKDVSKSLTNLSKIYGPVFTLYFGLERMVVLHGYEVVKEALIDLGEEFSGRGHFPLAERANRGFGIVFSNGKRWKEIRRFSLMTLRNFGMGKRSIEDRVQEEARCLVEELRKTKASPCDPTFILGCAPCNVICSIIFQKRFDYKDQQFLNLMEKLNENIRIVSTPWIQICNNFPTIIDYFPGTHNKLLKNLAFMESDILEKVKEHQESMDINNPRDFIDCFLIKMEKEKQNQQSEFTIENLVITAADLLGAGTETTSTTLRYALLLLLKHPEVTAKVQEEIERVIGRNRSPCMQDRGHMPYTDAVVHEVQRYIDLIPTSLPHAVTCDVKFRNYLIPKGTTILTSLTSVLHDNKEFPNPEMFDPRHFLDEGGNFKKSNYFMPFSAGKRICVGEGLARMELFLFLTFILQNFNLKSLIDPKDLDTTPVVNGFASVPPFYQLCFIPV
T2 sequence (P11712 whole entry): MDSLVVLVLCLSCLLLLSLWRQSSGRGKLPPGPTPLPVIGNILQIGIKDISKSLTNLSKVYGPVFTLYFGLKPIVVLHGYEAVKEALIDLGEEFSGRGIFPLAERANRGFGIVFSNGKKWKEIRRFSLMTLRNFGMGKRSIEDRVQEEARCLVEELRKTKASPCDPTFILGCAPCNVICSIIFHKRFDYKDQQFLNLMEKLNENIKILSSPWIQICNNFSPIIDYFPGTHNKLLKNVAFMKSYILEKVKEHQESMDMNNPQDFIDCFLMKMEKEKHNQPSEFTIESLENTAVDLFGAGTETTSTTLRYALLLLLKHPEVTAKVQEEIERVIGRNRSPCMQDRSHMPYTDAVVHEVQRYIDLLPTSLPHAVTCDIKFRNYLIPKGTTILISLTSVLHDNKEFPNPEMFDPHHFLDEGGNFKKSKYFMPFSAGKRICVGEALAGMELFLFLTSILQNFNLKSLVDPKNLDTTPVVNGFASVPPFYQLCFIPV

Cn1c(=O)c2c(ncn2C)n(C)c1=O [caffeine]
AUC(0-t) [1, 8]: 43200 ng·h/mL | AUC(0-t) [1, 9]: 44500 ng·h/mL | AUC(0-inf) [1, 8]: 45400 ng·h/mL | AUC(0-inf) [1, 9]: 47600 ng·h/mL | Cmax [1, 8]: 5210 ng/mL | Cmax [1, 9]: 5330 ng/mL | AUC(0-t) ([1]; po, 200 mg, probe caffeine, Geometric LSM, 5 + 1 cocktail alone, healthy volunteers, single oral 5+1 cocktail dose day 1, fasted): 52600 ng·h/mL | AUC(0-t) ([1]; po, 200 mg, probe caffeine, Mean (CV %), 5 + 1 cocktail alone, healthy volunteers, single oral 5+1 cocktail dose day 1, fasted): 52600 ng·h/mL | AUC(0-inf) [1, 10]: 53400 ng·h/mL | AUC(0-inf) [1, 11]: 53400 ng·h/mL | Cmax [1, 10]: 5190 ng/mL | Cmax [1, 11]: 5190 ng/mL | change of Cmax with rivoceranib ([1]; rivoceranib 700 mg QD): relatively unchanged; also recorded: did not change | reduction of AUC0-inf by rivoceranib ([1]; rivoceranib 700 mg QD): 15% | AUC(0-∞), Geometrical mean Ratio, % (90% CI) [1, 12]: 84.87% | Cmax, Geometrical mean Ratio, % (90% CI) [1, 12]: 100.41% | AUC(0-t), Geometric LS Mean, Cooperstown Cocktail Alone [2]: 10.6274 | AUC(0-∞), Geometric LS Mean, Cooperstown Cocktail Alone [2]: 10.6463 | Cmax, Geometric LS Mean, Cooperstown Cocktail Alone [2]: 8.4984

CC(=O)C[C@@H](c1ccccc1)c1c(O)c2ccccc2oc1=O [S-warfarin]
AUC(0-t), Geometric LSM, Rivoceranib plus 5 + 1 cocktail [3]: 28,490 | AUC(0-t), Mean (CV %), Rivoceranib plus 5 + 1 cocktail [3]: 28,920 | AUC(0-∞), Geometric LSM, Rivoceranib plus 5 + 1 cocktail [3]: 34,670 | AUC(0-∞), Mean (CV %), Rivoceranib plus 5 + 1 cocktail [3]: 34,780 | Cmax, Geometric LSM, Rivoceranib plus 5 + 1 cocktail [3]: 832.5 ng/mL | Cmax, Mean (CV %), Rivoceranib plus 5 + 1 cocktail [3]: 840.2 ng/mL | AUC(0-t), Geometric LSM, 5 + 1 cocktail alone [3]: 18.880 | AUC(0-t), Mean (CV %), 5 + 1 cocktail alone [3]: 18,880 | AUC(0-∞), Geometric LSM, 5 + 1 cocktail alone [3]: 20,640 | AUC(0-∞), Mean (CV %), 5 + 1 cocktail alone [3]: 20,640 | Cmax, Geometric LSM, 5 + 1 cocktail alone [3]: 701.1 ng/mL | Cmax, Mean (CV %), 5 + 1 cocktail alone [3]: 701.1 ng/mL | increase in AUC0-inf when co-administered with rivoceranib [3]: 68% | increase in Cmax when co-administered with rivoceranib [3]: 19% | increase in AUC0-∞ with coadministration with rivoceranib [4, 13]: 28% | increase in Cmax with coadministration with rivoceranib [4, 13]: 5%

COc1ccc2[nH]c([S+]([O-])Cc3ncc(C)c(OC)c3C)nc2c1 (stereo not drawn) [omeprazole]
increase in AUC0-inf with rivoceranib ([5]; rivoceranib 700 mg): 3.3 fold | increase in Cmax with rivoceranib ([5]; rivoceranib 700 mg): 2 fold | AUC(0-t), Geometrical mean Ratio, % (90% CI) [5, 12]: 259.87% | AUC(0-∞), Geometrical mean Ratio, % (90% CI) [5, 12]: 272.50% | Cmax, Geometrical mean Ratio, % (90% CI) [5, 12]: 198.80% | AUC(0-t), Geometric LS Mean, Cooperstown Cocktail Alone [6]: 7.3711 | AUC(0-∞), Geometric LS Mean, Cooperstown Cocktail Alone [6]: 7.5365 | Cmax, Geometric LS Mean, Cooperstown Cocktail Alone [6]: 6.3720

CC(=O)C[C@H](c1ccccc1)c1c(O)c2ccccc2oc1=O [R-warfarin]
AUC(0-t), Geometric LSM, Rivoceranib plus 5 + 1 cocktail [3]: 36,090 | AUC(0-t), Mean (CV %), Rivoceranib plus 5 + 1 cocktail [3]: 36,660 | AUC(0-∞), Geometric LSM, Rivoceranib plus 5 + 1 cocktail [3]: 48,560 | AUC(0-∞), Mean (CV %), Rivoceranib plus 5 + 1 cocktail [3]: 49,220 | Cmax, Geometric LSM, Rivoceranib plus 5 + 1 cocktail [3]: 804.9 ng/mL | Cmax, Mean (CV %), Rivoceranib plus 5 + 1 cocktail [3]: 816.0 ng/mL | AUC(0-t), Geometric LSM, 5 + 1 cocktail alone [3]: 29,860 | AUC(0-t), Mean (CV %), 5 + 1 cocktail alone [3]: 29,860 | AUC(0-∞), Geometric LSM, 5 + 1 cocktail alone [3]: 36,750 | AUC(0-∞), Mean (CV %), 5 + 1 cocktail alone [3]: 36,750 | Cmax, Geometric LSM, 5 + 1 cocktail alone [3]: 701.2 ng/mL | Cmax, Mean (CV %), 5 + 1 cocktail alone [3]: 701.2 ng/mL | increase in AUC0-inf when co-administered with rivoceranib [3]: 32% | increase in Cmax when co-administered with rivoceranib [3]: 15% | levels on coadministration with rivoceranib ([4]; rivoceranib 200 mg daily, plasma, FIG. 4 and Table 5): relatively unaffected

Cn1c(=O)[nH]c2ncn(C)c2c1=O [paraxanthine]
AUC(0-t) [1, 14]: 31000 ng·h/mL | AUC(0-t) [1, 15]: 31000 ng·h/mL | AUC(0-inf) [1, 14]: 31700 ng·h/mL | AUC(0-inf) [1, 15]: 28700 ng·h/mL | Cmax [1, 14]: 1440 ng/mL | Cmax [1, 15]: 1440 ng/mL | AUC(0-t), Geometric LS Mean, Cooperstown Cocktail Alone [2]: 10.0780 | AUC(0-∞), Geometric LS Mean, Cooperstown Cocktail Alone [2]: 10.1025 | Cmax, Geometric LS Mean, Cooperstown Cocktail Alone [2]: 7.1157

N#CC1(c2ccc(NC(=O)c3cccnc3NCc3ccncc3)cc2)CCCC1 [rivoceranib, N-[4-(1-cyanocyclopentyl)phenyl]-2-{[(pyridin-4-yl)methyl]amino}pyridine-3-carboxamide]
volunteers who had a TEAE (number) [7]: 16 | volunteers who had a TEAE (percent) [7]: 53.30%
